Data on 28 substances can be found in the OligoGym collection.

This data set addresses HBV. The note with it: ASO.

Several values for one entry are separate records, joined by “and”; a condition that tells them apart may be missing. Equal entries are not always repeated. HELM strings list units from the 5' end as sugar, base in round brackets, then linkage (d deoxyribose, r ribose, m 2'-O-methyl, p phosphodiester). Methylation of C is not given here. [moe] = 2'-O-(2-methoxyethyl) (MOE); [cEt] = constrained ethyl (cEt); [sp] = phosphorothioate linkage

Consider “RNA1{[moe](A)[sp].[moe](A)[sp].d(C)[sp].d(T)[sp].d(G)[sp].d(G)[sp].d(A)[sp].d(G)[sp].d(C)[sp].d(C)[sp].d(A)[sp].[moe](C)[sp].[moe](C)[sp].[moe](A)[sp].[moe](G)[sp].[moe](C)}$$$$V2.0”, for which the target mRNA inhibition (HepG2, 0.07 µM) is 48% and 43%. Consider “RNA1{[moe](A)[sp].[moe](G)[sp].[moe](A)[sp].[moe](A)[sp].[moe](G)[sp].d(T)[sp].d(C)[sp].d(C)[sp].d(A)[sp].d(C)[sp].d(C)[sp].d(A)[sp].d(C)[sp].d(G)[sp].[moe](A)[sp].[moe](G)[sp].[moe](T)}$$$$V2.0”, for which the target mRNA inhibition (HepG2, 0.07 µM) is 11% and 0%. Still for that read-out and setting: to “RNA1{[moe](C)[sp].[moe](T)[sp].[moe](G)[sp].d(A)[sp].d(A)[sp].d(C)[sp].d(A)[sp].d(A)[sp].d(A)[sp].d(T)[sp].d(G)[sp].d(G)[sp].d(C)[sp].[cEt](A)[sp].[cEt](C)[sp].[cEt](T)}$$$$V2.0” belongs 64% and 74%; to “RNA1{[moe](T)[sp].[moe](T)[sp].[moe](T)[sp].[moe](A)[sp].d(T)[sp].d(G)[sp].d(C)[sp].d(C)[sp].d(T)[sp].d(A)[sp].d(C)[sp].d(A)[sp].d(G)[sp].[moe](C)[sp].[moe](C)[sp].[moe](T)[sp].[moe](C)}$$$$V2.0”, 54% and 37%. The same measure, in the same setting: then “RNA1{[moe](G)[sp].[moe](T)[sp].d(T)[sp].d(C)[sp].d(C)[sp].d(G)[sp].d(C)[sp].d(A)[sp].d(G)[sp].d(T)[sp].d(A)[sp].[moe](T)[sp].[moe](G)[sp].[moe](G)[sp].[moe](A)[sp].[moe](T)}$$$$V2.0”, with 56% and 55%; and “RNA1{[moe](C)[sp].[moe](C)[sp].[moe](A)[sp].[moe](C)[sp].d(T)[sp].d(G)[sp].d(A)[sp].d(A)[sp].d(C)[sp].d(A)[sp].d(A)[sp].d(A)[sp].d(T)[sp].[moe](G)[sp].[moe](G)[sp].[moe](C)}$$$$V2.0”, with 57% and 68%. Take “RNA1{[moe](G)[sp].[moe](T)[sp].[moe](G)[sp].[moe](C)[sp].[moe](A)[sp].[moe](G)[sp].d(A)[sp].d(G)[sp].d(G)[sp].d(T)[sp].d(G)[sp].d(A)[sp].d(A)[sp].d(G)[sp].d(C)[sp].[moe](G)[sp].[moe](A)}$$$$V2.0”: the target mRNA inhibition reads like this: (HepG2, 0.0092593 µM) 7%; (HepG2, 0.0277778 µM) 4%; (HepG2, 0.07 µM) 78% and 70%; (HepG2, 0.0833333 µM) 38%; (HepG2, 0.25 µM) 76%. Consider “RNA1{[moe](G)[sp].[moe](A)[sp].d(A)[sp].d(C)[sp].d(T)[sp].d(G)[sp].d(G)[sp].d(A)[sp].d(G)[sp].d(C)[sp].d(C)[sp].[moe](A)[sp].[moe](C)[sp].[moe](C)[sp].[moe](A)[sp].[moe](G)}$$$$V2.0”, for which the target mRNA inhibition (HepG2, 0.07 µM) is 40% and 18%. The same measure, in the same setting: to “RNA1{[moe](A)[sp].[moe](T)[sp].[moe](T)[sp].[moe](T)[sp].d(A)[sp].d(T)[sp].d(G)[sp].d(C)[sp].d(C)[sp].d(T)[sp].d(A)[sp].d(C)[sp].d(A)[sp].[moe](G)[sp].[moe](C)[sp].[moe](C)[sp].[moe](T)}$$$$V2.0” belongs 58% and 42%; to “RNA1{[moe](A)[sp].[moe](A)[sp].d(C)[sp].d(C)[sp].d(A)[sp].d(C)[sp].d(T)[sp].d(G)[sp].d(A)[sp].d(A)[sp].d(C)[sp].[moe](A)[sp].[moe](A)[sp].[moe](A)[sp].[moe](T)[sp].[moe](G)}$$$$V2.0”, 15% and 0%.

Regarding “RNA1{[moe](G)[sp].[cEt](A)[sp].[cEt](G)[sp].d(G)[sp].d(C)[sp].d(C)[sp].d(C)[sp].d(A)[sp].d(C)[sp].d(T)[sp].d(C)[sp].d(C)[sp].d(C)[sp].[cEt](A)[sp].[cEt](T)[sp].[moe](A)}$$$$V2.0”, the target mRNA inhibition by setting is: (HepG2, 0.0092593 µM) 29%; (HepG2, 0.0277778 µM) 63%; (HepG2, 0.0833333 µM) 87%; (HepG2, 0.25 µM) 85%. For the substance “RNA1{[moe](A)[sp].[cEt](T)[sp].d(G)[sp].d(A)[sp].d(G)[sp].d(G)[sp].d(C)[sp].d(A)[sp].d(T)[sp].d(A)[sp].d(G)[sp].d(C)[sp].[cEt](A)[sp].[moe](G)[sp].[cEt](C)[sp].[moe](A)}$$$$V2.0”, the target mRNA inhibition (HepG2, 0.07 µM) was 63% and 57%. As for “RNA1{[moe](G)[sp].[moe](T)[sp].[moe](G)[sp].[moe](A)[sp].[moe](A)[sp].d(G)[sp].d(C)[sp].d(G)[sp].d(A)[sp].d(A)[sp].d(G)[sp].d(T)[sp].d(G)[sp].d(C)[sp].[moe](A)[sp].[moe](C)[sp].[moe](A)}$$$$V2.0”, the target mRNA inhibition (HepG2, 0.0092593 µM) worked out at 0%; the target mRNA inhibition (HepG2, 0.0277778 µM) was determined as 4%; the target mRNA inhibition (HepG2, 0.07 µM) was 77% and 75%; the target mRNA inhibition (HepG2, 0.0833333 µM) is 32%; the target mRNA inhibition (HepG2, 0.25 µM) worked out at 62%. Regarding “RNA1{[moe](G)[sp].[moe](A)[sp].[moe](T)[sp].[moe](G)[sp].d(A)[sp].d(G)[sp].d(G)[sp].d(C)[sp].d(A)[sp].d(T)[sp].d(A)[sp].d(G)[sp].d(C)[sp].[moe](A)[sp].[moe](G)[sp].[moe](C)}$$$$V2.0”, the target mRNA inhibition (HepG2, 0.07 µM) is 34% and 35%. On to “RNA1{[moe](A)[sp].[moe](T)[sp].[moe](T)[sp].[cEt](T)[sp].[cEt](A)[sp].d(T)[sp].d(G)[sp].d(C)[sp].d(C)[sp].d(T)[sp].d(A)[sp].d(C)[sp].[cEt](A)[sp].[cEt](G)[sp].[moe](C)[sp].[moe](C)[sp].[moe](T)}$$$$V2.0”, for which the target mRNA inhibition (HepG2, 0.009375 µM) was determined as 4%; the target mRNA inhibition (HepG2, 0.01875 µM) came out at 30%; the target mRNA inhibition (HepG2, 0.0375 µM) was 44%; the target mRNA inhibition (HepG2, 0.075 µM) came to 52%; the target mRNA inhibition (HepG2, 0.15 µM) is 67%; the target mRNA inhibition (HepG2, 0.3 µM) was determined as 76%.

In the case of “RNA1{[moe](G)[sp].[moe](A)[sp].[moe](A)[sp].d(C)[sp].d(T)[sp].d(G)[sp].d(G)[sp].d(A)[sp].d(G)[sp].d(C)[sp].d(C)[sp].d(A)[sp].[moe](C)[sp].[moe](C)[sp].[moe](A)[sp].[moe](G)}$$$$V2.0”, for the setting “HepG2, 0.07 µM”, the target mRNA inhibition was 51% and 39%. For the substance “RNA1{[moe](G)[sp].[moe](A)[sp].[moe](A)[sp].[moe](G)[sp].d(T)[sp].d(C)[sp].d(C)[sp].d(A)[sp].d(C)[sp].d(C)[sp].d(A)[sp].d(C)[sp].d(G)[sp].[moe](A)[sp].[moe](G)[sp].[moe](T)[sp].[moe](C)}$$$$V2.0”, for the setting “HepG2, 0.07 µM”, the target mRNA inhibition is 48% and 36%. For the setting “HepG2, 0.07 µM”, “RNA1{[moe](G)[sp].[moe](C)[sp].[moe](A)[sp].[moe](C)[sp].[moe](T)[sp].d(A)[sp].d(G)[sp].d(T)[sp].d(A)[sp].d(A)[sp].d(A)[sp].d(C)[sp].d(T)[sp].d(G)[sp].[moe](A)[sp].[moe](G)}$$$$V2.0” yielded a target mRNA inhibition of 60%. The same measure, in the same setting: to “RNA1{[moe](C)[sp].[moe](G)[sp].[moe](G)[sp].[moe](G)[sp].d(C)[sp].d(A)[sp].d(A)[sp].d(C)[sp].d(A)[sp].d(T)[sp].d(A)[sp].d(C)[sp].d(C)[sp].[moe](T)[sp].[moe](T)[sp].[moe](G)}$$$$V2.0” belongs 48% and 65%; to “RNA1{[moe](T)[sp].[cEt](C)[sp].[cEt](C)[sp].d(A)[sp].d(C)[sp].d(C)[sp].d(A)[sp].d(C)[sp].d(G)[sp].d(A)[sp].d(G)[sp].d(T)[sp].d(C)[sp].[cEt](T)[sp].[cEt](A)[sp].[moe](G)}$$$$V2.0”, 54% and 44%. In the case of “RNA1{[moe](A)[sp].[moe](G)[sp].[moe](A)[sp].[moe](T)[sp].[moe](G)[sp].d(A)[sp].d(G)[sp].d(G)[sp].d(C)[sp].d(A)[sp].d(T)[sp].d(A)[sp].d(G)[sp].d(C)[sp].[moe](A)[sp].[moe](G)[sp].[moe](C)}$$$$V2.0”, the target mRNA inhibition (HepG2, 0.07 µM) is 41% and 34%. Turning to “RNA1{[moe](A)[sp].[cEt](C)[sp].d(T)[sp].d(G)[sp].d(G)[sp].d(A)[sp].d(G)[sp].d(C)[sp].d(C)[sp].d(A)[sp].d(C)[sp].d(C)[sp].[cEt](A)[sp].[moe](G)[sp].[cEt](C)[sp].[moe](A)}$$$$V2.0”, under “HepG2, 0.07 µM”, the target mRNA inhibition was 67% and 55%. For the substance “RNA1{[moe](G)[sp].[moe](A)[sp].[moe](A)[sp].[moe](C)[sp].d(C)[sp].d(A)[sp].d(C)[sp].d(T)[sp].d(G)[sp].d(A)[sp].d(A)[sp].d(C)[sp].d(A)[sp].[moe](A)[sp].[moe](A)[sp].[moe](T)[sp].[moe](G)}$$$$V2.0”, the target mRNA inhibition (HepG2, 0.07 µM) is 33% and 45%.

With “RNA1{[moe](C)[sp].[cEt](C)[sp].d(A)[sp].d(A)[sp].d(T)[sp].d(T)[sp].d(T)[sp].d(A)[sp].d(T)[sp].d(G)[sp].d(C)[sp].d(C)[sp].[cEt](T)[sp].[moe](A)[sp].[cEt](C)[sp].[moe](A)}$$$$V2.0”, the target mRNA inhibition (HepG2, 0.07 µM) was 37% and 55%. As to “RNA1{[moe](C)[sp].[moe](A)[sp].[moe](G)[sp].[moe](A)[sp].[moe](G)[sp].[moe](G)[sp].d(T)[sp].d(G)[sp].d(A)[sp].d(A)[sp].d(G)[sp].d(C)[sp].d(G)[sp].d(A)[sp].d(A)[sp].[moe](G)[sp].[moe](T)}$$$$V2.0”, the target mRNA inhibition (HepG2, 0.07 µM) was 81% and 58%.

In the case of “RNA1{[moe](A)[sp].[cEt](C)[sp].[cEt](G)[sp].d(G)[sp].d(G)[sp].d(C)[sp].d(A)[sp].d(A)[sp].d(C)[sp].d(A)[sp].d(T)[sp].d(A)[sp].d(C)[sp].[cEt](C)[sp].[cEt](T)[sp].[moe](T)}$$$$V2.0”, the target mRNA inhibition (HepG2, 0.0092593 µM) amounted to 38%; the target mRNA inhibition (HepG2, 0.0277778 µM) stood at 73%; the target mRNA inhibition (HepG2, 0.07 µM) is 63% and 88%; the target mRNA inhibition (HepG2, 0.0833333 µM) is 87%; the target mRNA inhibition (HepG2, 0.25 µM) was found to be 92%. For the substance “RNA1{[moe](G)[sp].[moe](T)[sp].[moe](T)[sp].[moe](C)[sp].d(C)[sp].d(G)[sp].d(C)[sp].d(A)[sp].d(G)[sp].d(T)[sp].d(A)[sp].d(T)[sp].d(G)[sp].[moe](G)[sp].[moe](A)[sp].[moe](T)}$$$$V2.0”, the target mRNA inhibition (HepG2, 0.07 µM) was 57% and 45%. In the case of “RNA1{[moe](A)[sp].[cEt](A)[sp].[cEt](T)[sp].d(T)[sp].d(T)[sp].d(A)[sp].d(T)[sp].d(G)[sp].d(C)[sp].d(C)[sp].d(T)[sp].d(A)[sp].d(C)[sp].[cEt](A)[sp].[cEt](G)[sp].[moe](C)}$$$$V2.0”, the target mRNA inhibition (HepG2, 0.07 µM) was 70% and 73%.
